Experimental data published in PubChem BioAssay AID2060883 (Molecular Pharmacology Branch, DTP, NCI, 2025).
Each block holds one compound with its values, some of them ahead of it.

System: 843782-103-R-J1-PDC complex spheroid viability
Assay: Anticancer human tumor 843782-103-R-J1-PDC patient-derived lung adenocarcinoma cell line growth inhibition [RAS]
Details: for IC50: curve of first compound; for viability, T/C: stronger effect = lower value
Method in brief: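 Tumour cells grown as complex spheroids with HUVEC endothelial cells and mesenchymal stem cells, treated with RAS pathway inhibitor combinations. Each agent spans half-log steps from near clinical Cmax, or 10 microM where Cmax is unknown.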

[1] = second compound 0.00316 µM, first compound 0.0316 µM
[2] = second compound 0.00316 µM, first compound 0.1 µM
[3] = second compound 0.00316 µM, first compound 0.316 µM
[4] = second compound 0.00316 µM, first compound 1 µM
[5] = second compound 0.00316 µM, first compound 3.16 µM
[6] = second compound 0.00316 µM, first compound 10 µM
[7] = second compound 0.01 µM, first compound 0.0316 µM
[8] = second compound 0.01 µM, first compound 0.1 µM
[9] = second compound 0.01 µM, first compound 0.316 µM
[10] = second compound 0.01 µM, first compound 1 µM
[11] = second compound 0.01 µM, first compound 3.16 µM
[12] = second compound 0.01 µM, first compound 10 µM
[13] = second compound 0.0316 µM, first compound 0.0316 µM
[14] = second compound 0.0316 µM, first compound 0.1 µM
[15] = second compound 0.0316 µM, first compound 0.316 µM
[16] = second compound 0.0316 µM, first compound 1 µM
[17] = second compound 0.0316 µM, first compound 3.16 µM
[18] = second compound 0.0316 µM, first compound 10 µM
[19] = second compound 0.1 µM, first compound 0.0316 µM
[20] = second compound 0.1 µM, first compound 0.1 µM
[21] = second compound 0.1 µM, first compound 0.316 µM
[22] = second compound 0.1 µM, first compound 1 µM
[23] = second compound 0.1 µM, first compound 3.16 µM
[24] = second compound 0.1 µM, first compound 10 µM
[25] = second compound 0.316 µM, first compound 0.0316 µM
[26] = second compound 0.316 µM, first compound 0.1 µM
[27] = second compound 0.316 µM, first compound 0.316 µM
[28] = second compound 0.316 µM, first compound 1 µM
[29] = second compound 0.316 µM, first compound 3.16 µM
[30] = second compound 0.316 µM, first compound 10 µM
[31] = second compound 1 µM, first compound 0.0316 µM
[32] = second compound 1 µM, first compound 0.1 µM
[33] = second compound 1 µM, first compound 0.316 µM
[34] = second compound 1 µM, first compound 1 µM
[35] = second compound 1 µM, first compound 3.16 µM
[36] = second compound 1 µM, first compound 10 µM
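Note: viability read after seven days of compound exposure.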

IC50 (second compound 0.00316 µM): 726 nM
IC50 (second compound 0.01 µM): 711 nM
IC50 (second compound 0.0316 µM): 672 nM
IC50 (second compound 0.1 µM): 669 nM
IC50 (second compound 0.316 µM): 641 nM
IC50 (second compound 1 µM): 869 nM
Compound: CC(C)NCC(C(=O)N1CCN(c2ncnc3c2C(C)CC3O)CC1)c1ccc(Cl)cc1 (stereo unspecified) + C=CC(=O)N1CCN(c2nc(OCC3CCCN3C)nc3c(F)c(-c4nc(N)cc(C)c4C(F)(F)F)c(Cl)cc23)C(C)C1
viability, T/C [1]: 91.6%
viability, T/C [2]: 81.3%
viability, T/C [3]: 70%
viability, T/C [4]: 42.9%
viability, T/C [5]: 18.8%
viability, T/C [6]: 8.64%
viability, T/C [7]: 88.5%
viability, T/C [8]: 85.1%
viability, T/C [9]: 75.1%
viability, T/C [10]: 38.3%
viability, T/C [11]: 19.2%
viability, T/C [12]: 8.6%
viability, T/C [13]: 89%
viability, T/C [14]: 81.2%
viability, T/C [15]: 70.6%
viability, T/C [16]: 38.8%
viability, T/C [17]: 17.3%
viability, T/C [18]: 6.65%
viability, T/C [19]: 91.5%
viability, T/C [20]: 77.9%
viability, T/C [21]: 65.4%
viability, T/C [22]: 44.7%
viability, T/C [23]: 17.2%
viability, T/C [24]: 8.54%
viability, T/C [25]: 91.5%
viability, T/C [26]: 79.7%
viability, T/C [27]: 67.2%
viability, T/C [28]: 40.1%
viability, T/C [29]: 18.2%
viability, T/C [30]: 8.75%
viability, T/C [31]: 89.2%
viability, T/C [32]: 74.2%
viability, T/C [33]: 72.2%
viability, T/C [34]: 47.9%
viability, T/C [35]: 20.7%
viability, T/C [36]: 7.97%

IC50 (second compound 0.0316 µM): > 1000 nM
IC50 (second compound 0.1 µM): > 1000 nM
IC50 (second compound 0.316 µM): > 1000 nM
IC50 (second compound 1 µM): 595 nM
IC50 (second compound 3.16 µM): 231 nM
IC50 (second compound 10 µM): 57.6 nM
Compound: C=CC(=O)Nc1cc(Nc2nccc(-c3cn(C)c4ccccc34)n2)c(OC)cc1N(C)CCN(C)C + C#Cc1c(F)ccc2cc(O)cc(-c3ncc4c(N5CC6CCC(C5)N6)nc(OCC56CCCN5CC(F)C6)nc4c3F)c12
viability, T/C (second compound 0.0316 µM, first compound 0.00316 µM): 108%
viability, T/C (second compound 0.0316 µM, first compound 0.01 µM): 98.2%
viability, T/C [13]: 101%
viability, T/C [14]: 96.9%
viability, T/C [15]: 94.6%
viability, T/C [16]: 55.4%
viability, T/C (second compound 0.1 µM, first compound 0.00316 µM): 104%
viability, T/C (second compound 0.1 µM, first compound 0.01 µM): 94.7%
viability, T/C [19]: 102%
viability, T/C [20]: 97%
viability, T/C [21]: 88.2%
viability, T/C [22]: 64.2%
viability, T/C (second compound 0.316 µM, first compound 0.00316 µM): 105%
viability, T/C (second compound 0.316 µM, first compound 0.01 µM): 99.4%
viability, T/C [25]: 101%
viability, T/C [26]: 93.9%
viability, T/C [27]: 80%
viability, T/C [28]: 54.4%
viability, T/C (second compound 1 µM, first compound 0.00316 µM): 97%
viability, T/C (second compound 1 µM, first compound 0.01 µM): 90.7%
viability, T/C [31]: 99.9%
viability, T/C [32]: 88.9%
viability, T/C [33]: 65.3%
viability, T/C [34]: 37.6%
viability, T/C (second compound 3.16 µM, first compound 0.00316 µM): 90.3%
viability, T/C (second compound 3.16 µM, first compound 0.01 µM): 81.6%
viability, T/C (second compound 3.16 µM, first compound 0.0316 µM): 88%
viability, T/C (second compound 3.16 µM, first compound 0.1 µM): 63.6%
viability, T/C (second compound 3.16 µM, first compound 0.316 µM): 46%
viability, T/C (second compound 3.16 µM, first compound 1 µM): 33.3%
viability, T/C (second compound 10 µM, first compound 0.00316 µM): 55.9%
viability, T/C (second compound 10 µM, first compound 0.01 µM): 54%
viability, T/C (second compound 10 µM, first compound 0.0316 µM): 56.5%
viability, T/C (second compound 10 µM, first compound 0.1 µM): 44.7%
viability, T/C (second compound 10 µM, first compound 0.316 µM): 33.1%
viability, T/C (second compound 10 µM, first compound 1 µM): 4.02%

IC50 (second compound 0.00316 µM): 1420 nM
IC50 (second compound 0.01 µM): 1500 nM
IC50 (second compound 0.0316 µM): 1420 nM
IC50 (second compound 0.1 µM): 1480 nM
IC50 (second compound 0.316 µM): 1420 nM
IC50 (second compound 1 µM): 1630 nM
Compound: CCC(CC)c1cc(NC2CCC(N)C2)n2nccc2n1 (stereo unspecified) + C=CC(=O)N1CCN(c2nc(OCC3CCCN3C)nc3c(F)c(-c4nc(N)cc(C)c4C(F)(F)F)c(Cl)cc23)C(C)C1
viability, T/C [1]: 99.4%
viability, T/C [2]: 87.9%
viability, T/C [3]: 91.9%
viability, T/C [4]: 71.3%
viability, T/C [5]: 1.31%
viability, T/C [6]: 0.48%
viability, T/C [7]: 94.5%
viability, T/C [8]: 88.3%
viability, T/C [9]: 84.7%
viability, T/C [10]: 76.2%
viability, T/C [11]: 1.43%
viability, T/C [12]: 0.54%
viability, T/C [13]: 91.6%
viability, T/C [14]: 88.5%
viability, T/C [15]: 83.3%
viability, T/C [16]: 71.2%
viability, T/C [17]: 1.09%
viability, T/C [18]: 0.49%
viability, T/C [19]: 79.9%
viability, T/C [20]: 87.6%
viability, T/C [21]: 90.6%
viability, T/C [22]: 75.3%
viability, T/C [23]: 1.17%
viability, T/C [24]: 0.4%
viability, T/C [25]: 91.7%
viability, T/C [26]: 84.8%
viability, T/C [27]: 88.6%
viability, T/C [28]: 71%
viability, T/C [29]: 1.54%
viability, T/C [30]: 0.46%
viability, T/C [31]: 88.4%
viability, T/C [32]: 87.1%
viability, T/C [33]: 88.7%
viability, T/C [34]: 86.1%
viability, T/C [35]: 0.8%
viability, T/C [36]: 0.59%
